{"source": "ChEMBL document CHEMBL1149709", "about": "“Synthesis and SAR of 2-aryl pyrido[2,3-d]pyrimidines as potent mGlu5 receptor antagonists” (Bioorg Med Chem Lett, 2007)"}
{"biological_target": "Metabotropic glutamate receptor 5 (Rattus norvegicus, UniProt P31424)", "sequence (P31424 whole entry)": "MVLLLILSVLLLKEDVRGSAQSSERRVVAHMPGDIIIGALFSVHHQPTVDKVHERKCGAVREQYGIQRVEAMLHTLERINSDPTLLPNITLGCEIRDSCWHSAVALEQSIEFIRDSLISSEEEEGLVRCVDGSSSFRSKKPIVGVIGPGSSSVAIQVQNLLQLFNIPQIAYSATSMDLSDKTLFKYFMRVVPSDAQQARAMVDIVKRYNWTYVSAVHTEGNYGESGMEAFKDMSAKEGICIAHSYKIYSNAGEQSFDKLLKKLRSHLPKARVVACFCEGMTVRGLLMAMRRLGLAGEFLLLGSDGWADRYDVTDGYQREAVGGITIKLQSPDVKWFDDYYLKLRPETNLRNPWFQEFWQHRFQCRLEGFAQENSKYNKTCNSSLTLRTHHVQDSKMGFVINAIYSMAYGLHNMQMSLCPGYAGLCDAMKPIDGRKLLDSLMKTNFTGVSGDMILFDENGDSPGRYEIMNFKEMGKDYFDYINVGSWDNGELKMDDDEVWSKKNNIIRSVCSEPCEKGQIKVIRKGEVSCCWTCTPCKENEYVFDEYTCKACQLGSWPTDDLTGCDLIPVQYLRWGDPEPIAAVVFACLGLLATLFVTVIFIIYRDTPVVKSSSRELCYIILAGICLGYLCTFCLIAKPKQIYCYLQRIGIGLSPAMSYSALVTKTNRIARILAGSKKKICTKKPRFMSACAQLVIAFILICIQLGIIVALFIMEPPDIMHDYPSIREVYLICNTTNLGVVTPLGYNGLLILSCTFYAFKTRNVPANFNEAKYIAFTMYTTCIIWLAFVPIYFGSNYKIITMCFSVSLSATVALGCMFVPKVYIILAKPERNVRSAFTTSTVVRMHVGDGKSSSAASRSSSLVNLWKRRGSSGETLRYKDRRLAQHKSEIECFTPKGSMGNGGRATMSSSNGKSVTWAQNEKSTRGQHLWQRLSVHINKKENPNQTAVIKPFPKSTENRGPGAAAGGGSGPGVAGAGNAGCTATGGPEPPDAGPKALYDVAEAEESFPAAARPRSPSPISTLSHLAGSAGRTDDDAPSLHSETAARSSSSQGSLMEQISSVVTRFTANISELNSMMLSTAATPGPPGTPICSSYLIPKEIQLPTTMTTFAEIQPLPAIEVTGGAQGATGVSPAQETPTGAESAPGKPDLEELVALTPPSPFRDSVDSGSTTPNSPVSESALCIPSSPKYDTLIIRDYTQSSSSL", "assay": "Antagonistic activity at rat mGluR5 expressed in CHO cells assessed as inhibition of quisqualate stimulated calcium mobilization by FLIPR technology", "assay_type": "functional, cell-based", "settings": "not given; call rule not given here", "units": {"IC50": "nM"}}
{"smiles": "Cc1ccc2cnc(-c3cccc(Br)c3)nc2n1", "IC50": 38}
{"smiles": "Cc1ccc2cnc(-c3cc(Cl)cc(Cl)c3)nc2n1", "IC50": 0.72}
{"smiles": "Cc1cc(F)cc(-c2ncc3ccc(C)nc3n2)c1", "IC50": 39.7}
{"smiles": "Cc1ccc2cnc(-c3ccccc3)nc2n1", "IC50": 2700}
{"smiles": "Cc1cccc(-c2ncc3ccc(C)nc3n2)c1", "IC50": 53}
{"smiles": "Cc1ccc2cnc(-c3ccc(Cl)c(Cl)c3)nc2n1", "IC50": "> 30000"}
{"smiles": "Cc1ccc2cnc(-c3ccc(C#N)cc3)nc2n1", "IC50": "> 30000"}
{"smiles": "COc1ccccc1-c1ncc2ccc(C)nc2n1", "IC50": "> 30000"}
{"smiles": "Cc1cc(F)cc(-c2ncc3cccnc3n2)c1", "IC50": 321}
{"smiles": "Cc1ccc2cnc(-c3ccc(Br)cc3)nc2n1", "IC50": "> 30000"}
{"smiles": "Cc1ccc2cnc(-c3ccc(Cl)cc3Cl)nc2n1", "IC50": "> 30000"}
{"smiles": "Brc1cccc(-c2ncc3cccnc3n2)c1", "IC50": 333}
{"smiles": "N#Cc1cccc(-c2ncc3cccnc3n2)c1", "IC50": "> 26100"}
{"smiles": "COC(=O)c1ccc(-c2ncc3ccc(C)nc3n2)cc1", "IC50": "> 30000"}
{"smiles": "Cc1ccc2cnc(-c3cccc(S(C)(=O)=O)c3)nc2n1", "IC50": "> 30000"}
{"smiles": "COc1cc(OC)cc(-c2ncc3ccc(C)nc3n2)c1", "IC50": 179}
{"smiles": "Cc1ccc2cnc(-c3cccc(C#N)c3)nc2n1", "IC50": 240}
{"smiles": "COc1cccc(-c2ncc3ccc(C)nc3n2)c1", "IC50": 1500}
{"smiles": "Clc1cc(Cl)cc(-c2ncc3cccnc3n2)c1", "IC50": 228}
{"smiles": "Cc1ccc2cnc(-c3cccc(CN)c3)nc2n1", "IC50": "> 30000"}
{"smiles": "COc1cc(C#N)cc(-c2ncc3ccc(C)nc3n2)c1", "IC50": 1.2}
{"smiles": "COc1cc(-c2ncc3ccc(C)nc3n2)cc(OC)c1OC", "IC50": "> 30000"}
{"smiles": "COc1cc(C#N)cc(-c2ncc3cccnc3n2)c1", "IC50": 4.95}
{"tested_on": "Rattus norvegicus", "assay": "Effect on rat monosodium iodoacetate model of osteoarthritis pain assessed as inhibition of change in hind paw weight at 10 mg/kg, po after 4 hrs", "assay_type": "organism-based", "parameters": "dose 10 mg/kg, route oral", "settings": "in vivo"}
{"smiles": "COc1cc(C#N)cc(-c2ncc3ccc(C)nc3n2)c1", "Activity": "Active"}
{"tested_on": "Rattus norvegicus", "assay": "Effect on rat monosodium iodoacetate model of osteoarthritis pain assessed as inhibition of change in hind paw weight at 10 mg/kg, po after 2 hrs", "assay_type": "organism-based", "parameters": "dose 10 mg/kg, route oral", "settings": "in vivo"}
{"smiles": "COc1cc(C#N)cc(-c2ncc3ccc(C)nc3n2)c1", "Activity": "Active"}
